Results published in BindingDB's records for doi:10.1021/cb400200h (University of Oxford, 2013).

Target: Peptidoglycan D,D-transpeptidase FtsI (Pseudomonas aeruginosa (strain PA7), UniProt A6VB91)
Experiment: IC50 Assay
Conditions: pH 7.2; 25 °C
Procedure: An appropriate amount of enzyme (4uM) was pre-incubated with the (5R)- or 5(S)-penicilloic acid in the assay buffer (50mM HEPES-NaOH buffer (pH 7.2) supplemented with 0.01% Triton-100) at room temperature for 10 min. Nitrocefin (100uM) was added to initiate the assay. The IC50 values were determined using the software package Graph Prism 5.01.

Peptidoglycan D,D-transpeptidase FtsI, sequence (A6VB91 whole entry): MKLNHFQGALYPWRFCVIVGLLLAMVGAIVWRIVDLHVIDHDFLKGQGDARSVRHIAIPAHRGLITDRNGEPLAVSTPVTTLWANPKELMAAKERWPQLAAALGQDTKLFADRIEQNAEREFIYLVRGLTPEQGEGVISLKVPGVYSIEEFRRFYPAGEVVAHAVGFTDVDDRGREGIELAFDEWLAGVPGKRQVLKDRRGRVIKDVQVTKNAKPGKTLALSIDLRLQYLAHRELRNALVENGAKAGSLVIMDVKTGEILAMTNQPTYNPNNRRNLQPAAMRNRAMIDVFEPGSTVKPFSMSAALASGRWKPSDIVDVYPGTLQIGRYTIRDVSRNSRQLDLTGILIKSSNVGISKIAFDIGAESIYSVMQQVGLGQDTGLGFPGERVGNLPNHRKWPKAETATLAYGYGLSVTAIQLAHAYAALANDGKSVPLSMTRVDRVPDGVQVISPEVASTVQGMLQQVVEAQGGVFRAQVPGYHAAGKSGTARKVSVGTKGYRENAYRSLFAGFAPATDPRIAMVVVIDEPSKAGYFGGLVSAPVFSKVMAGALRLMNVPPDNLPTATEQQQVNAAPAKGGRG

IC50 [µM]	Structure (SMILES)
126	CCN1CCN(C(=O)N[C@@H](C(=O)N[C@H](C(=O)O)[C@H]2N[C@@H](C(=O)O)C(C)(C)S2)C2C=CC=CC2)C(=O)C1=O (stereo partly drawn) [(5S)-PA]
196	CCN1CCN(C(=O)N[C@@H](C(=O)N[C@H](C(=O)O)[C@@H]2N[C@@H](C(=O)O)C(C)(C)S2)C2C=CC=CC2)C(=O)C1=O (stereo partly drawn) [(5R)-PA]
0.166	CCN1CCN(C(=O)N[C@@H](C(=O)N[C@@H]2C(=O)N3[C@@H]2SC(C)(C)[C@@H]3C(=O)O)c2ccccc2)C(=O)C1=O
